From ChEMBL document CHEMBL1201862, “PubChem BioAssay data set” (2004)
Calls of active or inactive are those of the source.

Experiments:
fMet-Leu-Phe receptor = fMet-Leu-Phe receptor (Homo sapiens, UniProt P21462); experiment: formyl peptide receptor binders – dose response (AID 519); assay type: functional
Cytochrome P450 3A4 = Cytochrome P450 3A4 (Homo sapiens, UniProt P08684);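 note: CYP3A4 tested as one member of a cytochrome P450 panel screen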
[1] = viability loss in CEM21 cells – cell-based, CellTiter-Glo luminescence, cherry-picked, cytotoxicity control for viral fusion inhibitor project, dose response (AID 652042); assay type: functional;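 note: potency for signal decrease meaning cytotoxicity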
[2] = blockers of HIV-1 envelope-mediated cell-cell fusion – cherry-pick, dose response (AID 652057); assay type: functional, cell-based
[3] = general cell-killing toxicity readout – plate reader, dry powder samples, cytotoxicity control for PAX8 inhibitor project, dose response (AID 743021); assay type: functional, cell-based
[4] = viability loss in HEK293 cells – cell-based, plate reader, cherry-picked samples, cytotoxicity control, dose response (AID 743446); assay type: functional
Melanocortin receptor 4 = Melanocortin receptor 4 (Homo sapiens, UniProt P32245); experiment: inhibitors of MC4R cAMP signaling – cell-based, TR-FRET, biased antagonists, dose response (AID 602298); assay type: functional;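 note: antagonist potency against agonist-stimulated cAMP production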
Sequence of Melanocortin receptor 4 (P32245 whole entry): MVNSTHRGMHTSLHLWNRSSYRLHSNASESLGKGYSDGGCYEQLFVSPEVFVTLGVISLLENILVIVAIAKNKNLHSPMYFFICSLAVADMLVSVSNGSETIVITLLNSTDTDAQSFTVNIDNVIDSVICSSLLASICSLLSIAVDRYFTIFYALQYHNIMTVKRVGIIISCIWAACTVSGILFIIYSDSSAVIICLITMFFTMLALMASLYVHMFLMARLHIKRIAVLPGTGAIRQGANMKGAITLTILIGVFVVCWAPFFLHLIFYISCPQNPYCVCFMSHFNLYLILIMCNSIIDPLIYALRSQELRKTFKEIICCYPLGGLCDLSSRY

[5] = target: T1, Microphthalmia-associated transcription factor (Homo sapiens, UniProt O75030); experiment: reducers of TRPM1 reporter luminescence, concentration series – cell-based, SK-MEL-5, cherry-picked, set 3, MITF inhibitor project, dose response (AID 493073); assay type: functional;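 note: SK-MEL-5 melanoma cells with luciferase driven by the MITF target TRPM1 promoter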
T1 sequence (O75030 whole entry): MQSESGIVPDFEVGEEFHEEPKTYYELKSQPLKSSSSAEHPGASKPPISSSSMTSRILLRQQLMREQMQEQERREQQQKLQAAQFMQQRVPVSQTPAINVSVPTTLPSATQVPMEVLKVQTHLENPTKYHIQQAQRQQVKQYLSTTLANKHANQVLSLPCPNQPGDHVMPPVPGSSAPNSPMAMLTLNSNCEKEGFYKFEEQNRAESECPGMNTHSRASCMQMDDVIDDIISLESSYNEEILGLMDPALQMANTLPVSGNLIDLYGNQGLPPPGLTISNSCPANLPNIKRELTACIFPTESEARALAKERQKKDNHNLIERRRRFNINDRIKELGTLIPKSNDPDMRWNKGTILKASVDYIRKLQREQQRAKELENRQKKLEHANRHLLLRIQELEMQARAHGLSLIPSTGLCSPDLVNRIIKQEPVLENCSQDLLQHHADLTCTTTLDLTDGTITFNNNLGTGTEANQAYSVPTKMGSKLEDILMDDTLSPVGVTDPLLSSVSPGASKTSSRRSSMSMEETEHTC

[6] = loss of viability in HepG2 cells – cell-based, CellTiter-Glo, cherry-picked, cytotoxicity control for Shn3 inhibitor project, dose response (AID 624134); assay type: functional
[7] = blockers of HIV-1 ZM109 envelope-driven cell-cell fusion – HeLa effector, CEM target cells, luciferase, cherry-pick, dose response (AID 652058); assay type: functional, cell-based;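 note: luciferase signal from HIV-1 Env mediated cell-cell fusion of effector and target cells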
[8] = HIV-1 AD8 envelope cell-cell fusion blockers – cherry-pick, dose response (AID 652062); assay type: functional, cell-based;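 note: luciferase signal from cell-cell fusion driven by HIV-1 clade B AD8 Env; potency is for inhibitors of fusion seen as a drop in luminescence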
[9] = A549 cell cytotoxicity, dose response, cytotoxicity control, plate reader, cherry-pick, antagonist series (AID 743412); assay type: functional, cell-based
[10] = blockers of bursicon-stimulated LGR2 cAMP reporter – cell-based, HEK293, CRE-luciferase reporter, cherry pick, set 2, dose response (AID 743343); assay type: functional;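 note: transfected cells were stimulated with diluted bursicon conditioned medium after compound addition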
[11] = toxicity toward HepG2 liver cells – cell-based, plate reader, cherry-pick, antagonist series, cytotoxicity control, dose response (AID 743416); assay type: functional
[12] = reduction of Shn3 3'UTR-driven luciferase in osteoblasts – cell-based, Clone20 osteoblasts, firefly luciferase, cherry-picked, dose response (AID 624132); assay type: functional;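 note: firefly luciferase luminescence from reporter carrying the Shn3 3'UTR in osteoblasts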
Jurkat = experiment: blockers of NF-kB activation in T cells – Jurkat, luciferase reporter, luminescence, B- and T-cell, dose response (AID 489004); assay type: functional, cell-based; details: Homo sapiens;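 note: NF-kB luciferase reporter Jurkat cells stimulated with PMA plus ionomycin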
[13] = non-specific 3'UTR reporter inhibition in Clone20-Shn3RL – cell-based, Renilla luciferase, cherry-picked, counter-screen for Shn3 inhibitor project, dose response (AID 624133); assay type: functional
[14] = off-target signal loss in HeLa-CEM21 co-culture – HeLa F-luc CTL cells, cherry-picked, counter-screen for HIV-1 Env fusion inhibitor project, dose response (AID 652040); assay type: functional, cell-based;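 note: potency for signal decrease marking cytotoxic or nonspecific inhibition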
[15] = cAMP pathway inhibition in counterscreen cell line – TR-FRET cAMP detection, counter-screen for MC4R biased antagonist project, dose response (AID 602305); assay type: functional, cell-based;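 note: U2OS cells stimulated with forskolin near its EC80 as the cAMP inducer; potency is for inhibition of forskolin-stimulated cAMP signaling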
[16] = blockade of melanocortin 4 receptor signaling – cell-based, plate reader, cherry pick, counter-screen for LGR2 antagonist project, dose response (AID 743444); assay type: functional;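 note: transfected HEK 293 cells stimulated with alpha-MSH peptide; potency of inhibitors of the alpha-MSH evoked signal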
Paired box protein Pax-8 = Paired box protein Pax-8 (Homo sapiens, UniProt Q06710); experiment: PAX8 transcriptional activity inhibition in RMG-I – RMG-I cells, luciferase, cherry-pick, dose response (AID 687027); assay type: functional, cell-based;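 note: luciferase reporter driven by Pax8 target thyroperoxidase promoter measured by SteadyGlo luminescence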
Sequence of Paired box protein Pax-8 (Q06710 whole entry): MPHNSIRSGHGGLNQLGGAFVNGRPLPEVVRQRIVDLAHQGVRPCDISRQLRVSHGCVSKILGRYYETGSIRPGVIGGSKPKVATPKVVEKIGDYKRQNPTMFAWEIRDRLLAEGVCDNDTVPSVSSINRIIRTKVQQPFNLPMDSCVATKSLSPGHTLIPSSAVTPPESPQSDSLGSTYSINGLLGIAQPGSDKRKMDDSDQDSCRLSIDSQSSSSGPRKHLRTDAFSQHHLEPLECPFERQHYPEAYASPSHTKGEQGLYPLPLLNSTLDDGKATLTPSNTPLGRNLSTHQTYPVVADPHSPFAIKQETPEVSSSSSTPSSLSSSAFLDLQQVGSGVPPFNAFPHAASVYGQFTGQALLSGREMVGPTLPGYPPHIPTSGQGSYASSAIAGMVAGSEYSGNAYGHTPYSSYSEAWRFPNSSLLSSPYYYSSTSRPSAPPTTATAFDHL

[17] = reduced cellular PGC1a acetyl-lysine signal – cell-based, cherry-picked samples, dose response (AID 720514); assay type: functional;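 note: potency may reflect raised or lowered acetylation signal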
[18] = HEK-293T viability loss, compound-treated – cell-based, uHTS hits, cytotoxicity control for B/T-cell NF-kB inhibitor project, dose response (AID 489019); assay type: functional;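 note: IC50 reflects cytotoxicity as loss of cell viability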
[19] = fluconazole-exposed Candida albicans growth modulators – fluorescence, retest, confirmation (AID 2467); assay type: functional, cell-based
[20] = target: Heat shock protein HSP 90-alpha (Homo sapiens, UniProt P07900); assay type: functional, organism-based
cells = assay type: functional, cell-based; details: HEK-CNG
[21] = NIH-3T3 fibroblast cytotoxicity, dose response, cytotoxicity control, cell-based, fluorescence, Alamar Blue, secondary assay (AID 2327); assay type: functional;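 note: NIH-3T3 mouse fibroblasts cultured with fluconazole at 8 µg/mL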
Galanin receptor type 3 = Galanin receptor type 3 (Homo sapiens, UniProt O60755); experiment: Fluorescence-based cell-based primary high throughput dose response assay to identify antagonists of the Galanin Receptor 3 (GalR3).; assay type: functional
Sequence of Galanin receptor type 3 (O60755 whole entry): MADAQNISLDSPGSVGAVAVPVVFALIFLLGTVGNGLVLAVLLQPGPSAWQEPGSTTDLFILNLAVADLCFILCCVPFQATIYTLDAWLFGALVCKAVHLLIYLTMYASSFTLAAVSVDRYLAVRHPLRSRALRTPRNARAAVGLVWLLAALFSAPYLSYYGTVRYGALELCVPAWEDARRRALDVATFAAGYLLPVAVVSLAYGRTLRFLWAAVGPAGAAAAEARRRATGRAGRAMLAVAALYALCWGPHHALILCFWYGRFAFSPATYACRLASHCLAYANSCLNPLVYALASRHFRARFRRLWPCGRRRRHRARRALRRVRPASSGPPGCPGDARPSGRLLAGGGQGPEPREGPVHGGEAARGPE

[22] = HEK-293T viability loss after treatment – luminescence, T-cell screen hits, cytotoxicity control for TCR NF-kB inhibitor project, dose response (AID 489026); assay type: functional, cell-based;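 note: cells exposed to compound about 14 hours before the viability readout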
[23] = Shn3 3'UTR reporter signal decrease – cell-based, Clone20 osteoblasts, firefly luciferase, cherry-pick, set 2, Schnurri-3 inhibitor project, dose response (AID 720490); assay type: functional;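 note: actives lower the luminescence signal as inhibitors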
Caspase-6 = Caspase-6 (Homo sapiens, UniProt P55212); experiment: inhibition of CASP6 peptide cleavage – biochemical, VEID-R110 fluorescence, cherry-pick, dose response (AID 720632)
Sequence of Caspase-6 (P55212 24-179 limits assumed): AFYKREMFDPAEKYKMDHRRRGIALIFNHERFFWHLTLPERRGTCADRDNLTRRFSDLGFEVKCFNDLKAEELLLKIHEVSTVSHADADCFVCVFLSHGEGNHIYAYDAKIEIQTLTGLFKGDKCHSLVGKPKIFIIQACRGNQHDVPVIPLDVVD
Sequence of Caspase-6 (P55212 194-293 limits assumed): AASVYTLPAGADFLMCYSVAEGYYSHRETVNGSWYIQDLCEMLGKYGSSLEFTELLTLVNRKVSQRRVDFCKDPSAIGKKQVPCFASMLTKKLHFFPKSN

[24] = target: T2, High affinity choline transporter 1 (Homo sapiens, UniProt Q9GZV3); experiment: human choline transporter blockers, potency – cell-based, 5-point CRC, membrane potential dye, dose response (AID 504840); assay type: functional
T2 sequence (Q9GZV3 whole entry): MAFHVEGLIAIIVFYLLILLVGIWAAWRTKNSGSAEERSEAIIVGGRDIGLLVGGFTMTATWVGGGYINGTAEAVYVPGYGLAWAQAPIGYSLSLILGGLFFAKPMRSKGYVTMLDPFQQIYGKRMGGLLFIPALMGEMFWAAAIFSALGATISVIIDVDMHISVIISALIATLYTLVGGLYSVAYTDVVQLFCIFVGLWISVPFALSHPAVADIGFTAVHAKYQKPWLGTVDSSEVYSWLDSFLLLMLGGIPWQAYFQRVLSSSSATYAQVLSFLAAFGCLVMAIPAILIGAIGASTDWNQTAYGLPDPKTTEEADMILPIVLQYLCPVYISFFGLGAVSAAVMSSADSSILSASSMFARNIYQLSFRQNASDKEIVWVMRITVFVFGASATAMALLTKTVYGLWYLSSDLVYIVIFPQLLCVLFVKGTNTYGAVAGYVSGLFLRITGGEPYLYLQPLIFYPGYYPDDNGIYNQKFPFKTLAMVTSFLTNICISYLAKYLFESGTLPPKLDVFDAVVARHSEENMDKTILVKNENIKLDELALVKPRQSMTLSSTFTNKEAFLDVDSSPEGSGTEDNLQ

[25] = target: T3, Histone-lysine N-methyltransferase NSD2 (Homo sapiens, UniProt O96028); assay type: biochemical
T3 sequence (O96028 whole entry): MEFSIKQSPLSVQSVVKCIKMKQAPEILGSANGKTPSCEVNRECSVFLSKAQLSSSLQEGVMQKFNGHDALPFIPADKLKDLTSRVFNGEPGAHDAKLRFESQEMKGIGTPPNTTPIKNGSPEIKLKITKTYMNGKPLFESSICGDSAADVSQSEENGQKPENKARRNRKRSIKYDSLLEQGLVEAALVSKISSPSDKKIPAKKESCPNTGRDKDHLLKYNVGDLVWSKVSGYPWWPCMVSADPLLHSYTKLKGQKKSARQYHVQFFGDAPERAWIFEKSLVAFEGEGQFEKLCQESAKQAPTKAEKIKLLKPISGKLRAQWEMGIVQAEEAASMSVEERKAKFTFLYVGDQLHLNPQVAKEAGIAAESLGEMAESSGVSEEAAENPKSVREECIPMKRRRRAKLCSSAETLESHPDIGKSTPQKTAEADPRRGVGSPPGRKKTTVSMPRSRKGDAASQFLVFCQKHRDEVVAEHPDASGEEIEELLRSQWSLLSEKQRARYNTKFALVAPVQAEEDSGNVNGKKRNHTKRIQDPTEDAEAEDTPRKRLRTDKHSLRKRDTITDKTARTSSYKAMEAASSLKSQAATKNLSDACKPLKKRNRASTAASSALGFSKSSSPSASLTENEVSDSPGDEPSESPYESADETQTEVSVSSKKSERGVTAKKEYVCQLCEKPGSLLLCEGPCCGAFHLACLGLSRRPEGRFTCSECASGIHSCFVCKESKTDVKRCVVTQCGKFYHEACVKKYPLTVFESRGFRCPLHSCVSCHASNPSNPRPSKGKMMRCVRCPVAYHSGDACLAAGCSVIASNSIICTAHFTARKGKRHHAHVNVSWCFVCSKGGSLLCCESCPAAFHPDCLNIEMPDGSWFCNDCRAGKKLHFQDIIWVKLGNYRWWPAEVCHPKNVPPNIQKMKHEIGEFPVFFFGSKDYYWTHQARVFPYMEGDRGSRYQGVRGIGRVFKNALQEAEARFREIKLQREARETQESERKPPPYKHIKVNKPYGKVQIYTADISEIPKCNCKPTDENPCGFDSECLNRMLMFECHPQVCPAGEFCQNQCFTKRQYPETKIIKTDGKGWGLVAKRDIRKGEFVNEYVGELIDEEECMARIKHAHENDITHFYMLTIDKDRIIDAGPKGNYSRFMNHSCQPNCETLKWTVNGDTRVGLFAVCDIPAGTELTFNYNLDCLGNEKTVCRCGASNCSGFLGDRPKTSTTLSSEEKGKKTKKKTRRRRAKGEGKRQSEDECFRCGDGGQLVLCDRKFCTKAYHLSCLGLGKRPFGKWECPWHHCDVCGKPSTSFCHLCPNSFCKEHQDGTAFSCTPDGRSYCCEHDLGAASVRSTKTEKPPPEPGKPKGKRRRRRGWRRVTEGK

Sequence of fMet-Leu-Phe receptor (P21462 whole entry): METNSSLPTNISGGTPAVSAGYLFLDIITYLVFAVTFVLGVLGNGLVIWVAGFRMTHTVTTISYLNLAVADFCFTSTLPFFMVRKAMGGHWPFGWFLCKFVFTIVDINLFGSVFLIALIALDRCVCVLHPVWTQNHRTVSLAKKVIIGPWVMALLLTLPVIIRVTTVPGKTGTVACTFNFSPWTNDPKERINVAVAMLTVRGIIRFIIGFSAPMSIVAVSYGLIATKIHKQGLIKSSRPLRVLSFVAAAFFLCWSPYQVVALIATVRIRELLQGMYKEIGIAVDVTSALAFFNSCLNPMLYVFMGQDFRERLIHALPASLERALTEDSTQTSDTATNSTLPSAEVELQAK
Sequence of Cytochrome P450 3A4 (P08684 whole entry, the tested form may be a part): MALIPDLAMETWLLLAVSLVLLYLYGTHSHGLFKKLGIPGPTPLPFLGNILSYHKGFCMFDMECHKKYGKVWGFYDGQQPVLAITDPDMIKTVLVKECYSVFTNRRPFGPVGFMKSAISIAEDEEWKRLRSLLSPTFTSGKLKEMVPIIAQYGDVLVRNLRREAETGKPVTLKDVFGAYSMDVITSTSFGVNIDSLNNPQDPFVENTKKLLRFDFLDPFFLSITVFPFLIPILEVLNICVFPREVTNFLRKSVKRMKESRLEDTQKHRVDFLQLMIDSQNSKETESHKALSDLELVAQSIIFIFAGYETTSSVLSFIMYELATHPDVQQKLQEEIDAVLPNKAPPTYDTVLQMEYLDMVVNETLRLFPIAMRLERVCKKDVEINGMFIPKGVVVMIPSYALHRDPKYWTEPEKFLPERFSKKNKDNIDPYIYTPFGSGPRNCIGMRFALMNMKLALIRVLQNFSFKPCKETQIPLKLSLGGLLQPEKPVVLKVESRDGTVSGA

COc1ccc(-c2cc(C(F)(F)F)nc(N3CCCCC3)n2)cc1OC
Ki (fMet-Leu-Phe receptor): > 66.7 µM (inactive)
AC50 (Cytochrome P450 3A4): 25.1 µM (inconclusive)

C#CC(=O)N(c1ccc(OC)cc1OC)C(C(=O)NC1CCCC1)c1cccs1 (configuration not stated)
AC50 [1]: 0.631 µM (active)
AC50 [2]: 14.8 µM (active)
AC50 [3]: 0.678 µM (active)
AC50 [4]: 1.87 µM (active)
IC50 (Melanocortin receptor 4): > 64.6 µM (inactive)
AC50 [5]: 4.73 µM (active)
AC50 [6]: 4.23 µM (active)
AC50 [7]: 14.4 µM (active)
AC50 [8]: 9.92 µM (active)
AC50 [9]: 13.4 µM (active)
AC50 [10]: 8.43 µM (active)
AC50 [11]: 0.839 µM (active)
AC50 [12]: 7.12 µM (active)
IC50 (Jurkat): 0.32 µM (active)
AC50 [13]: 1.11 µM (active)
AC50 [14]: 4.53 µM (active)
IC50 [15]: > 64.6 µM (inactive)
AC50 [16]: 6.64 µM (active)
AC50 (Paired box protein Pax-8): < 0.26 µM (active)
AC50 [17]: 3.91 µM (active)
IC50 [18]: 37.3 µM (inactive)

CC(C)CCOc1cccc(OCC(=O)Nc2ccncc2)c1
EC50 [19]: 3.63 µM (active)
AC50 [6]: 48.5 µM (active)
AC50 [20]: 2.62 µM (active)
AC50 [12]: 0.571 µM (active)
EC50 (cells): > 29.9 µM (inactive)
AC50 [13]: 2.72 µM (active)
EC50 [21]: > 160 µM (inactive)
IC50 (Galanin receptor type 3): 1.06 µM (active)
IC50 [22]: > 80 µM (inactive)
AC50 [23]: 1.07 µM (active)

CC(C)C(=O)C1=Cc2cccc([N+](=O)[O-])c2OC1N1CCOCC1 (configuration not stated)
AC50 (Caspase-6): 43.7 µM (active)

O=C1N/C(=N\c2ccccc2Cl)S/C1=C\c1cccc([N+](=O)[O-])c1O
IC50 [24]: 12.6 µM (active)
AC50 (Caspase-6): 11 µM (active)
AC50 [25]: 19.2 µM (active)
